One experiment concerns H358 cells. The experiment can be described thus: Detection of cell proliferation inhibition, H358 (Cell-titer Glo, 96 h). The format is cell-based. How it is done: H358 cells were plated in 96-well ultra-low adsorption plates at 2000 cells and 190 µL/well. After overnight incubation, compound solutions of gradient concentrations were prepared, and 10 µL of the DMSO solution of each concentration of the compound to be tested was added to the cells in each well. Compound final concentrations were 10000, 3333.3, 1111.1, 370.4, 123.5, 41.2, 13.7, 4.6, 1.5, 0 nM (all final concentrations of DMSO were 0.25%). Incubate at 37° C., 5% CO2 for 96 h. Add 50 µL of Cell-titer Glo working solution to each well, incubate at room temperature for 10 min after shaking and mixing, read the Luminescence luminescence value with a multi-function microplate reader, and convert the luminescence value reading into the inhibition percentage:
Percent Inhibition = (Max-Reading)/(Max-Min)* 100. • “Max” is the DMSO control, • “Min” is the cell-free control.
Curve fitting was performed with Graphpad Prism software and IC50 values were obtained. See Table 1 for IC50 data on H358 cell inhibition by example compounds.

For another experiment, the system named is MIA PaCa-2 cells. Briefly: Detection of cell proliferation inhibition, MIA PaCa-2 (Cell-titer Glo, 96 h). The format is cell-based. The note with it: read-out: IC50 (nM) MIA PaCa-2. Here is the method:
MIA PaCa-2 cells were plated in a 96-well ultra-low adsorption plate at 600 cells and 160 µL/well. After overnight incubation, compound solutions with gradient concentrations were prepared, and 40 µL of DMSO solutions of the compounds to be tested were added to each well of cells respectively. Compound final concentrations were 10000, 2000, 400, 80, 16, 3.2, 0.64, 0.12, 0.025, 0 nM (all final concentrations of DMSO were 0.25%). Incubate at 37° C., 5% CO2 for 96 h. Add 50 µL of Cell-titer Glo working solution to each well, shake and mix well, incubate at room temperature for 10 min, read the Luminescence luminescence value with a multi-function microplate reader, and convert the luminescence value reading into inhibition percentage: Percent Inhibition = (Max-Reading)/(Max-Min)* 100. • “Max” is the DMSO control; • “Min” is the cell-free control.
Curve fitting was performed with Graphpad Prism software and IC50 values were obtained. See Table 1for IC50 data for the inhibition of MIA PaCa-2 cells by the compounds of the examples.

The mark [1] stands for this setting: Homo sapiens, NCI-H358, read-out: IC50 (nM) H358.

SMILES strings stand for the structures. Like-named read-outs stand apart in the source and are kept apart here.

By IC50 is commonly meant the concentration that gives 50% inhibition. As to `C=CC(=O)N1CCN(c2nc(=O)n(-c3c(C)ccnc3C(C)C)c3c(F)c4c(cc23)OCc2cccc(F)c2-4)[C@@H](C)C1` [Example 4, (S)-8-(Acryloyl-2-Methylpiperazin-1-yl)-1,12-Difluoro-11-(2-Isopropyl-4-Methylpyridin-3-yl)-5H-Isochromene[3,4-g] Quinazolin-10(11H)-One], the IC50 with H358 cells (read-out: IC50 (nM) H358) was found to be 191 nM; with MIA PaCa-2 cells it was 63 nM.
For `C=CC(=O)N1CCN(c2nc(=O)n(-c3c(C)ccnc3C(C)C)c3c(F)c4c(cc23)OCc2ccccc2-4)[C@@H](C)C1` [Example 2] the same measures were 295 nM and 122 nM.
Turning to `C=CC(=O)N1CCN(c2nc(=O)n(-c3c(C)ccnc3C(C)C)c3c4c(c(Cl)cc23)-c2cnccc2CO4)[C@@H](C)C1` [Example 23, (S)-1-(4-Acryloyl-2-Methylpiperazin-1-yl)-11-Chloro-4-(2-Isopropyl-4-Methylpyridine-3-yl)-4H-Pyridin[3’,4’:4,5]Pyrano[3.2-h]Quinazolin-3(6H)-One], the IC50 in the experiment with H358 cells (setting [1]) is 532 nM; in the experiment on MIA PaCa-2 cells (Homo sapiens) it was 292 nM.
For `C=CC(=O)N1CCN(c2nc(=O)n(-c3c(C)ccnc3C(C)C)c3c4c(c(F)cc23)-c2c(cccc2OC)CO4)[C@@H](C)C1` [Example 11, (S)-1-(Acryloyl-2-Methylpiperazin-1-yl)-l1-Fluoro-10-Methoxy-4-(2-Isopropyl-4-Methylpyridin-3-yl)-4H-Isochromene[4,3-h] Quinazolin-3(6H)-one] the same measures were 2040 nM and 964 nM.
For `C=CC(=O)N1CCN(c2nc(=O)n(-c3c(C)ccnc3C(C)C)c3nc4c(cc23)OCc2cccc(O)c2-4)[C@@H](C)C1` [Example 37, (S)-8-(4-Acryloyl-2-Methylpiperazin-1-yl)-1-Hydroxy-11-(2-Isopropyl-4-Methylpyridine-3-yl)-5 H-Isochromene [3’,4’:5,6] Pyrido [2,3-d] Pyrimidin 10(11H)-One] the same measures were 2490 nM and 1340 nM.
Regarding `C=CC(=O)N1CCN(c2nc(=O)n(-c3c(CC)ncnc3CC)c3c4c(c(Cl)cc23)-c2c(F)cccc2CCO4)[C@@H](C)C1` [Example 24], the concentration for half-maximal inhibition (IC50) in the experiment with H358 cells (setting [1]) and with MIA PaCa-2 cells (Homo sapiens) was below 50 nM throughout.
For the compound `C=CC(=O)N1CCN(c2nc(=O)n(-c3c(C(C)C)ncc4c3CCC4)c3c4c(c(Cl)cc23)-c2c(ccc(F)c2F)CO4)[C@@H](C)C1` [Example 27], the IC50 with H358 cells (setting [1]) was determined as 110 nM; in the experiment with MIA PaCa-2 cells (Homo sapiens), 66 nM.
For `C=CC(=O)N1CCN(c2nc(=O)n(-c3c(C)ccnc3C(C)C)c3c4c(c(Cl)cc23)-c2c(ccc(F)c2F)CCO4)[C@@H](C)C1` [Example 30, 10-((S)-4-Acryloyl-2-Methylpiperazin-1-yl)-8-Chloro-6,7-Difluoro-13-(2-Isopropyl-4-Methylpyridin-3-yl)-2,3-Dihydrobenzo[4,5] Oxa[3,2-h]Quinazolin-12(13H)-One] the same measures were below 50 nM and below 50 nM.
For `C=CC(=O)N1CCN(c2nc(=O)n(-c3c(C)ccnc3C(C)C)c3c4c(c(Cl)cc23)-c2c(F)ccc(O)c2CO4)[C@@H](C)C1` [Example 28] the same measures were 95 nM and 85 nM.
For `C=C(F)C(=O)N1CCN(c2nc(=O)n(-c3c(C)ccnc3C(C)C)c3c4c(c(Cl)cc23)-c2c(ccc(F)c2F)CO4)[C@@H](C)C1` [Example 34, (S)-11-Chloro-9,10-Difluoro-1-(4-(2-Fluoroacryloyl)-2-Methylpiperazin-1-yl)-4-(2-Isopropyl-4-Methylpyridin-3-yl)-4H-Isochromo[4,3-h] Quinazolin-3(6H)-One] the same measures were 780 nM and 908 nM.
Consider `C=CC(=O)N1CCN(c2nc(=O)n(-c3c(C)ccnc3C(C)C)c3c(F)c4c(cc23)OCc2cccc(F)c2-4)CC1CC#N` (stereo not drawn) [Example 26, 2-(1-Acryloyl-4-(1,12-Difluoro-11-(2-Isopropyl-4-Methylpyridin-3-yl)-10-Oxo-10,11-Dihydro-5H -Isochromene[3,4-g]Quinazolin-8-yl)Piperazin-2-yl)Acetonitrile], for which the IC50 with H358 cells (setting [1]) was determined as 349 nM; in the experiment on MIA PaCa-2 cells (Homo sapiens), 546 nM.
For `C=CC(=O)N1CCN(c2nc(=O)n(-c3c(C)ccnc3C(C)C)c3c4c(c(F)cc23)-c2c(ccc3ccccc23)CO4)[C@@H](C)C1` [Example 21, (S)-1-(4-Acryloyl-2-Methylpiperazin-1-yl)-13-Fluoro-4-(2-Isopropyl-4-Methylpyridine-3-yl)-4H-Benzo[5,6] Isochromene[4,3-h]Quinazolin-3(6H)-one] the same measures were 690 nM and 1700 nM.
For `C=CC(=O)N1CCN(c2nc(=O)n(-c3c(C)ccnc3C(C)C)c3c4c(c(Cl)cc23)-c2c(F)cccc2CCO4)[C@@H](C)C1` [Example 19, 10-((S)-4-Acryloyl-2-Methylpiperazin-1-yl)-8-Chloro-7-Fluoro-13-(2-Isopropyl-4-Methylpyridin-3-yl)-2,3-Dihydrobenzo[4,5]oxa[3,2-h]Quinazo1in-12(13H)-One] the same measures were below 50 nM and below 50 nM.
As for `C=CC(=O)N1CCN(c2nc(=O)n(-c3c(C)ccnc3C(C)C)c3c4c(c(C)cc23)-c2c(F)cccc2CO4)[C@@H](C)C1` [Example 15, (S)-1-(4-Acryloyl-2-Methylpiperazin-1-yl)-10-Fluoro-4-(2-Isopropyl-4-Methylpyridine-3-yl)-11-Methyl-4H-Isochromene[4,3-h] Quinazolin-3(6H)-One], the IC50 in the experiment with H358 cells (read-out: IC50 (nM) H358) and in the experiment with MIA PaCa-2 cells was below 50 nM throughout.
Regarding `C=CC(=O)N1CCN(c2nc(=O)n(-c3c(C)ccnc3C(C)C)c3c(F)c4c(cc23)OCc2cccc(Cl)c2-4)[C@@H](C)C1` [Example 6, (S)-8-(Acryloyl-2-Methylpiperazin-1-yl)-1-Chloro-12-Fluoro-11-(2-Isopropyl-4-Methylpyridin-3-yl)-5 H-Isochromene[3,4-g] Quinazolin-10(11 H)-one], the IC50 was 496 nM in the experiment on H358 cells (read-out: IC50 (nM) H358) and 272 nM in the experiment on MIA PaCa-2 cells.

The record behind these values is US20230203055A1, “FUSED RING COMPOUND AND APPLICATION THEREOF IN MEDICINE” (Betta Pharmaceuticals Co., LTD, priority 2020, published 2023).
